Assay: Measurement of pKa by titration with NaOH solution in water/acetone
Type: physicochemical
Conditions: for Measured pKa Exp. Ex. 2: monomer, titration with NaOH solution in water/acetone, room temperature
Procedure: In a solution of water/acetone of 10/15 ml was put 0.7865 g of CH2═CHCH2C(CF3)2OH, followed by stirring at room temperature. After it was confirmed that the solution became homogeneous, titration was carried out with a 0.2 mol/liter NaOH solution. A titration curve was obtained by adding a NaOH solution dropwise in increments of 0.15 ml and recording a pH value at every addition. An equivalence point was determined by an inflection point (maximum differential value of titration curve=dpH/dml) of the titration curve. In this case, the equivalence point was 14.5 ml. […] From a titration curve of water/acetone solution and aqueous solution which had been measured previously as a blank solution, a difference in a pH value derived from an electric potential difference between the solutions at titration of 7.25 ml was 1.29.
In case of titration of 1.0865 g of CH2═CHCH2C(CF3)2OH by the same procedures as above, an equivalence point was 20.15 ml and a half of equivalence point was 10.08 ml. A pH value at a half of the equivalence point was 10.78.
When the same procedures as above were carried out except that about 0.05 mol/liter NaOH solution was used as a titration solution, an equivalence point of 0.115 g of CH2═CHCH2C(CF3)2OH was 8.00 ml and a half of equivalence point was 4.00 ml. A pH value at this time was 10.92.
From those experiments carried out three times, a pKa value of CH2═CHCH2C(CF3)2OH was determined as 9.6.
With respect to the various fluorine-containing ethylenic monomers having OH group shown in Table 1, a pKa value was measured by the same procedures as above.

| Compound | pKa | pKa value (single titration) (0.115 g, about 0.05 mol/liter NaOH) | pKa value (single titration) (0.7865 g, 0.2 mol/liter NaOH, water/acetone 10/15 ml) | pKa value (single titration) (1.0865 g, 0.2 mol/liter NaOH) | Measured pKa Exp. Ex. 2 |
| --- | --- | --- | --- | --- | --- |
| C=C(F)C(O)(C(F)(F)F)C(F)(F)F [Ex. 4, 1,1-bistrifluoromethyl-2-fluoro-2-propene-1-ol] | 8 | – | – | – | – |
| OC(C(F)=C(F)F)(C(F)(F)F)C(F)(F)F [Prep. Ex. 1, 1,1-bistrifluoromethyl-2,3,3-trifluoro-2-propene-1-ol] | 7.1 | – | – | – | – |
| CH2═CHCH2C(CF3)2OH | – | 9.54 | 9.69 | 9.64 | 9.6 |
| C=C(F)C(F)(F)OC(F)(C(F)(F)F)C(F)(F)OC(F)(CO)C(F)(F)F (stereo not shown) [perfluoro-(1,1,1,9,9-tetrahydro-2,5-bistrifluoromethyl-3,6-dioxanonenol)] | – | – | – | – | 12.6 |
